# According to ChEMBL document CHEMBL3797140, “Acridin-3,6-dialkyldithiourea hydrochlorides as new photosensitizers for photodynamic therapy of mouse leukemia cells” (Bioorg Med Chem, 2016):
# Activity calls are given as the source filed them. The rule behind the calls is not given here.
# Assays:
# L1210 [1] = test: Induction of autophagy in mouse L1210 cells assessed as accumulation of LC3BII at 0.5 uM preincubated for 1 hr measured after 8 hrs by Western blot method in absence of light; type: cell-based; settings: l1210, 8 h
# L1210 [2] = test: Induction of cytomorphological changes in mouse L1210 cells assessed as cell shrinkage at 0.5 uM preincubated for 1 hr followed by 1.05 J/cm2 UV-A irradiation measured after 6 to 24 hrs by Hoechst 33342 staining-based fluorescence microscopy; type: functional
# L1210 [3] = test: Induction of autophagy in mouse L1210 cells assessed as accumulation of LC3BII at 0.5 to 1 uM preincubated for 1 hr followed by 1.05 J/cm2 UV-A irradiation measured after 4 to 6 hrs by Western blot method; type: functional, cell-based
# L1210 [4] = test: Phototoxicity against mouse L1210 cells assessed as cell viability preincubated with 0.5 nM bafilomycin A1 followed by compound exposure for 1 hr followed by 1.05 J/cm2 UV-A irradiation measured after 48 hrs by MTT assay in presence of pepstatin A; type: functional, cell-based
# L1210 [5] = test: Induction of cell cycle arrest in mouse L1210 cells assessed as accumulation at sub-G0 phase at 1 uM preincubated for 1 hr measured after 24 hrs by propidium iodide staining-based flow cytometry in absence of light (reference value: 16.6 +/- 0.4%); settings: l1210, 24 h
# L1210 [6] = test: Induction of apoptosis in mouse L1210 cells assessed as Bax level at 0.5 uM preincubated for 1 hr measured after 8 hrs by Western blot method in absence of light; type: cell-based; settings: l1210, 8 h
# [7] = Induction of ROS generation measured after UV-A irradiation by spin trapping agent DMPO based EPR spectroscopy; type: physicochemical
# [8] = Cytotoxicity against human HL60/ADR cells after 48 hrs by MTT assay; type: functional, cell-based
# L1210 [9] = test: Induction of apoptosis in mouse L1210 cells assessed as decrease in Bcl2 level at 0.5 uM preincubated for 1 hr measured after 8 hrs by Western blot method in absence of light; type: cell-based; settings: l1210, 8 h
# [10] = Drug uptake in cytosol of mouse L1210 cells at 1 uM after 1 to 6 hrs by fluorescence microscopy; type: ADME, cell-based
# [11] = Induction of ROS generation measured 2 mins after UV-A irradiation by spin trapping agent DMPO based EPR spectroscopy; type: physicochemical
# L1210 [12] = test: Induction of DNA fragmentation in mouse L1210 cells at 0.5 to 1 uM preincubated for 1 hr followed by 1.05 J/cm2 UV-A irradiation measured after 6 hrs by agarose gel electrophoresis; type: functional, cell-based
# L1210 [13] = test: Induction of ROS generation in mouse L1210 cells at 0.5 uM preincubated for 1 hr followed by 1.05 J/cm2 UV-A irradiation by fluorescence microscopy in presence of trolox; type: functional, cell-based
# L1210 [14] = test: Drug uptake in mouse L1210 cells at 1 uM after 15 mins to 6 hrs by fluorescence microscopy; type: ADME, cell-based; settings: l1210, 1 µM
# L1210 [15] = test: Induction of apoptosis in mouse L1210 cells assessed as Bax level at 0.5 to 1 uM preincubated for 1 hr followed by 1.05 J/cm2 UV-A irradiation measured after 4 to 6 hrs by Western blot method; type: functional, cell-based
# [16] = Dark toxicity against mouse NIH/3T3 cells assessed as cell viability after 48 hrs by MTT assay; type: cell-based, NIH3T3
# L1210 [17] = test: Induction of cytomorphological changes in mouse L1210 cells at 0.5 uM preincubated for 1 hr measured after 6 to 24 hrs by Hoechst 33342 staining-based fluorescence microscopy in the absence of light; type: cell-based; settings: l1210, 0.5 µM
# L1210 [18] = test: Phototoxicity in mouse L1210 cells at 0.5 uM preincubated for 1 hr followed by 1.05 J/cm2 UV-A irradiation measured after 6 hrs by lactate dehydrogenase leakage assay; type: functional, cell-based
# L1210 [19] = test: Phototoxicity against mouse L1210 cells assessed as cell viability preincubated with 10 nM chloroquine followed by compound exposure for 1 hr followed by 1.05 J/cm2 UV-A irradiation measured after 48 hrs by MTT assay in presence of pepstatin A; type: functional, cell-based
# L1210 [20] = test: Phototoxicity in mouse L1210 cells at 1 uM preincubated for 1 hr followed by 1.05 J/cm2 UV-A irradiation measured after 24 hrs by lactate dehydrogenase leakage assay; type: functional, cell-based
# [21] = Cytotoxicity against human HL60 cells after 48 hrs by MTT assay; type: functional, cell-based; settings: HL-60, 48 h
# L1210 [22] = test: Induction of apoptosis in mouse L1210 cells assessed as caspase 3 activation at 0.5 to 1 uM preincubated for 1 hr followed by 1.05 J/cm2 UV-A irradiation measured after 4 to 6 hrs by Western blot method; type: functional, cell-based
# L1210 [23] = test: Phototoxicity against mouse L1210 cells assessed as cell viability preincubated for 1 hr followed by 1.05 J/cm2 UV-A irradiation measured after 48 hrs by MTT assay; type: functional, cell-based; settings: L1210, light or radiation study
# Calf thymus DNA = test: Binding affinity to calf thymus DNA by UV-visible spectrophotometry; type: nucleic-acid assay; settings: Bos taurus
# L1210 [24] = test: Induction of cell cycle arrest in mouse L1210 cells assessed as accumulation at sub-G0 phase at 0.5 uM preincubated for 1 hr followed by 1.05 J/cm2 UV-A irradiation measured after 24 hrs by propidium iodide staining-based flow cytometry (reference value: 16.8 +/- 0.6%); type: functional
# [25] = Drug uptake in plasma membrane of mouse L1210 cells at 1 uM after 1 to 6 hrs by fluorescence microscopy; type: ADME, cell-based; settings: l1210, 1 µM
# L1210 [26] = test: Decrease in ATP level in mouse L1210 cells at 0.5 uM preincubated for 1 hr followed by 1.05 J/cm2 UV-A irradiation measured after 6 hrs by luciferase reporter assay; type: functional; parameters: scale not given: the % may be the effect or the level left
compound,measurement,setting,value
CCCNC(=S)Nc1ccc2cc3ccc(NC(=S)NCCC)cc3nc2c1.Cl,Activity,L1210 [1],Non-toxic
same,Activity,L1210 [2],Active
same,Activity,L1210 [3],Active
same,Activity,L1210 [4],inactive
same,Activity,L1210 [5],21.1%
same,Activity,L1210 [6],Non-toxic
same,Activity,[7],Active
same,IC50,[8],7.2 µM
same,Activity,L1210 [9],Non-toxic
same,Drug uptake,[10],Not Active
same,Activity,[11],Active
same,Activity,L1210 [12],Active
same,Activity,L1210 [13],inactive
same,Drug uptake,L1210 [14],Active
same,Activity,L1210 [15],inactive
same,IC50 at 48 h,[16],43.5 µM
same,Activity,L1210 [17],Non-toxic
same,Activity,L1210 [18],inactive
same,Activity,L1210 [19],inactive
same,Activity,L1210 [20],Active
same,IC50,[21],7.2 µM
same,Activity,L1210 [22],inactive
same,IC50,L1210 [23],0.48 µM
same,K,Calf thymus DNA,6.8 ×10⁵ /M
same,Activity,L1210 [24],43.2%
same,Drug uptake,[25],Not Active
same,Activity,L1210 [26],30%
